Laboratory results reported in patent US4158018A, “3-Oxa carbinol prostaglandin analogs” (Miles Laboratories, Inc., priority 1978, dated 1979).

Experiments:
[1] = system: Gastric Secretion of the Rat; test: Effects on gastric secretion of the rat (pylorus ligated); format: in vivo; conditions: for Gastric Secretion (value judgement, % decrease in acidity): subcutaneous, 2 x 1.5 mg/kg (total 3.0 mg/kg), 4 hours after pyloric ligation
Experimental: Evaluation of the Effects of Prostaglandin Analogues on Gastric Secretion of the Rat
A procedure based on that described by Lipmann (1969) is used to assess the influence of test compound on gastric secretion. Rats of one sex weighing 150 to 200 gm are randomly divided into groups of six animals each and fasted for 48 hours previous to the experiments, water being available ad libitum. The animals are anesthetized with ether, the abdomen opened through a midline incision, and the pylorus ligated. Test compounds are diluted from stock solution so as to administer a dose of 1.5 mg/kg in a volume equivalent to 1 ml/kg. Subcutaneous injections are applied immediately after surgery and again 2 hours later, so that a total dose of 3.0 mg/kg is administered. Dilutions are made with phosphate buffer (pH 7.38) as recommended by Lee et al (1973), in order to insure adequate stability of drugs at the subcutaneous depot. Each compound is tested in one group of rats; an additional control group received only one vehicle.
Four hours after pyloric ligation the animals are killed with ether, the cardias ligated and the stomachs removed. The volume of gastric secretion is measured and the contents centrifuged at 5000 rpm for 10 minutes. Total acid in the supernatant is titrated against a 0.1 N sodium hydroxide solution and the amount expressed in mEq.
Volume and total acid values of the treated group are compared with those of the controls by the test. Antisecretory activity is scored according to the following scale: […]

Hypertensive Rat = test: Effects on blood pressure in the hypertensive rat (Grollman); format: in vivo; parameters: key: 0: Not significant at any time interval; 1: Significant at one time interval; 2: Significant at two time intervals; 3: Significant at three time intervals; 4: Significant at all four time intervals; conditions: intraperitoneal, 1 mc/kg; 2, 4, 6 and 8 hours
Experimental: Evaluation of the Effects of Prostaglandin Analogues on Blood Pressure in the Hypertensive Rat
The acute antihypertensive activity of test compounds is determined in rats made hypertensive by the procedure of Grollman (1944). Female rats weighing between 60 and 100 g are anesthetized with ether, the right kidney approached through a flank retroperitoneal incision, decapsulated and tied with a figure-of-eight ligature. The animals are left to recover and two weeks later are again anesthetized and the contralateral kidney removed. Four weeks after the second operation the rats are subjected to indirect blood pressure measurements and those showing systolic pressure values greater than 160 mmHg are selected for drug testing.
Blood pressure is measured in the tail with an inflatable occluding cuff placed at the base of the extremity and a pulse detector located distally. The cuff is inflated to approximately 300 mmHg and is slowly deflated until pulsations appear, indicating the level of systolic pressure; diastolic pressure is not recorded by this procedure. All measurements are carried out in unanesthetized, unsedated animals maintained in a warm environment during the recording procedure and for at least 6 hours before. In all cases, three pressure readings are obtained in succession and mean values are calculated thereof.
Experiments are carried out in groups of five hypertensive rats in which systolic pressure is determined immediately before and 2, 4, 6 and 8 hours after the intraperitoneal administration of the test compound at a dose of 1 mc/kg. Drugs are diluted from stock solutions with phosphate buffer (Lee et al, 1973), so as to inject this quantity in a volume of 1 ml/kg. Changes from control blood pressure values are calculated for each interval both in mmHg and in percent and evaluated for significance by means of Wilcoxon's signed rank test (Wilcoxon and Wilcox, 1964).

thyroid activity = conditions: mice; cited from earlier work
growth hormone release = conditions: rats; cited from earlier work
gastric secretion = conditions: dogs; cited from earlier work
[2] = system: smooth muscle of the vas deferens; conditions: mammalian male reproductive system; cited from earlier work
adrenal glands = conditions: hypophysectomized rats; cited from earlier work
blood platelets = conditions: in vitro; cited from earlier work
[3] = system: ovarian progesterone secretion; conditions: sheep; cited from earlier work

Molecule	Gastric Secretion (value judgement, % decrease in acidity) [1]	Blood Pressure Hypertensive Rat (value judgement, blood pressure decrease) (Hypertensive Rat)	other results
CCCCC[C@H](O)/C=C/[C@H]1[C@H](O)CC(=O)[C@@H]1CCCCOCCO [TR-4650, 3-oxa-1,11α,15S-trihydroxyprost-13E-en-9-one]	0 (<26)	1	
CCCCC[C@H](O)/C=C/[C@H]1[C@H](CCCCOCCO)C(=O)C[C@@H]1O [TR-4649, 3-oxa-1,11β,15S-trihydroxy-8,12-bisisoprost-13E-en-9-one]	0 (<26)		
CCCCC[C@H](O)/C=C/[C@H]1[C@H](O)CC(=O)[C@@H]1CCCCCCC(=O)O [PGE1, prostaglandin E1]			thyroid activity (thyroid activity): increase thyroid activity; release of growth hormone (growth hormone release): increases the release of growth hormone; gastric secretion (gastric secretion): inhibits gastric secretion; contraction of smooth muscle of the vas deferens [2]: contracts the smooth muscle of the vas deferens; stereodogenesis in the adrenal glands (adrenal glands): stimulate stereodogenesis in the adrenal glands; aggregation of blood platelets (blood platelets): inhibits aggregation of blood platelets in vitro; ovarian progesterone secretion [3]: inhibit ovarian progesterone secretion
CCCCC(C)(C)[C@@H](O)/C=C/[C@H]1[C@H](O)CC(=O)[C@@H]1CCCCOCCO (relative stereo) [TR-4617, ±16,16-dimethyl-3-oxa-1,11α,15R and S-trihydroxyprost-13E-en-9-one]	0 (<26)	1	
16,20-methano-oxa-1,11β,15R-trihydroxy- 8,12-bisisoprost-13E-en-9-one [TR-4853]	0 (<26)		
CCCCC(C)(C)[C@H](O)/C=C/[C@H]1[C@H](O)CC(=O)[C@@H]1CCCCOCCO (relative stereo) [TR-4616, ±16,16-dimethyl-3-oxa-1,11α,15R and S-trihydroxyprost-13E-en-9-one]	2 (26-50, significant)	0	inhibition of gastric acid secretion (in words) ([1]; rat, in vivo): inhibit gastric acid secretion
O=C1CC(O)C(/C=C/[C@H](O)C2CCCCC2)C1CCCCOCCO (stereo partly drawn) [TR-4856, 16,20-methano-3-oxa-1,11α,15R-trihydroxyprost-13E-en-9-one]	0 (<26)	2	
